# Article PMC12152147, “DDB1 engagement defines the selectivity of S656 analogs for cyclin K degradation over CDK inhibition” (EMBO Reports, 2025)
# Several values for one entry are separate records, joined by “and”; a condition that tells them apart may be missing. Identical values can stand only once. Like-named read-outs stand apart in the source and are kept apart here.
# Key:
# primary AML specimens = assay: Discovery screen: 6-day single-dose (1 μM) viability, CellTiterGlo; assay type: cell-based, human; settings: 6 days
# Text: As recently described, our group conducted a high-throughput screening (HTS) assay assessing the response of 56 primary AML specimens to a library of 10,000 compounds (Moison et al, [2024]). This diverse small molecule library encompassed compounds with a wide range of structural diversity (Bristol-Myers Squibb), including clinical-grade compounds. Primary AML specimens representing the biological diversity of the disease, along with normal hematopoietic cells (CD34^+ cord blood cells), were exposed to a 6-day single-dose compound treatment (1 μM) and viability was assessed using the CellTiterGlow luminescent assay (Appendix Fig. S1A–C). A profile of inhibition—or fingerprint—was generated for each small molecule across the 56 primary AML specimens tested. […] Among these candidates, 12 were validated in cell lines and primary specimens and selected based on their chemotypes. […] Of note, highly sensitive AML specimens spanned various AML subgroups, underscoring the broad activity of S656 across genetically diverse AMLs (Fig. 1D).
# Freshly thawed primary AML specimens were used for chemical screens. […] Cell viability was evaluated after 6 days in culture using the CellTiterGlo assay according to the manufacturer’s instruction. Percentage of inhibition for dose response curves was calculated as 100 – (100 × (mean luminescence [compound]/mean luminescence [DMSO])). […]
# [1] = tested on: BRCA2, ATR and BLM mRNA expression; assay: qPCR of DDR transcripts in OCI-AML5; assay type: cell-based, H. sapiens; settings: OCI-AML5, 4 h; S656 5 μM, THZ531 200 nM; normalized to HPRT, DMSO = 1
# Protocol: RNA was harvested in Trizol (ThermoFisher) and isolated according to manufacturer’s protocol and reverse transcribed using MMLV reverse transcriptase and random primers (ThermoFisher). Quantitative PCR was performed using validated assays designed for the Universal Probe Library (Roche) on the Viia7 (Applied Biosystems). qPCR primer sequences are available in Table EV2. Relative quantity of target is normalized to HPRT and compared to normalized expression of control cells.
# OCI-AML5 cells = assay: Cell cycle profile (Hoechst 33342 flow cytometry); assay type: cell-based, H. sapiens; settings: 24 h
# Protocol: For cell cycle experiments, 500,000 cells in exponential growth phase were incubated in pre-warmed media containing 10 μg/mL Hoechst 33342 during 45 min in incubator (37 °C in 5% CO2). After wash, cells were resuspended in cold media and recorded on BD FACSCelesta cytometer at low flow rate and analyzed with FlowJo v10 (Tree Star).
# [2] = tested on: OCI-AML5 Cas9 cells (sgDDB1, sgAAVS1); assay: Dose response in inducible OCI-AML5 Cas9 cells expressing sgRNAs targeting DDB1 or AAVS1; assay type: cell-based, H. sapiens; settings: 4 days, read-out: S656 IC50
# Protocol: Dose-response assays in primary AML specimens were performed as in chemical screen (see above) with the exception that compounds were tested in serial dilution (8 dilutions, 1:4, 10 μM down to 0.5 nM). Dose-response assays in OCI-AML5 cell line were conducted similarly with the following modifications: 300 cells per well were seeded in 50 μL of cell line media and cell viability was evaluated after 4 days in culture.
# Clonal OCI-AML5 cells expressing an inducible Cas9 (Addgene plasmid #50661 (Wang et al, [2014])) were generated and then infected with lentiviruses for constitutive expression of sgRNAs targeting AAVS1 control region (Addgene plasmid #50662 (Wang et al, [2014])) or DDB1 #1 ([…]); #2 ([…]). Cas9 expression is induced by doxycycline (2 μg/mL) and experiments performed subsequently.
# OCI-AML5 cells proteome = assay: Whole-proteome mass spectrometry analysis; assay type: cell-based, H. sapiens; settings: OCI-AML5, 5 hours, 8 μM S656
# Protocol: Whole proteome was performed as previously described (Moison et al, [2024]). We treated 10 million OCI-AML5 cells in triplicate with DMSO or 8 μM S656 for 5 h. Collected cells were washed in PBS and cell pellets lysed in Triton X-100 buffer (10 mM PIPES pH 7.4, 0.5% Triton X-100, 300 mM Sucrose, 100 mM NaCl, 3 mM MgCl2, 0.5 mM EDTA + protease inhibitors). Following MS analysis, the data were processed using PEAKS X Pro (Bioinformatics Solutions, Waterloo, ON) and a Uniprot human database (20366 entries) with trypsin as the enzyme. Differential Enrichment analysis of Proteomics data (DEP) package (Zhang et al, [2018]) in R was used to analyze the data (excluding proteins identified based on a single peptide), including data filtering, normalization, imputation of missing values and statistical testing of differentially expressed proteins.
compound,measurement,setting,value
CN(C)c1ccc(CC(=O)Nc2ncc(SCc3cccnc3)s2)cc1 [S656],inhibition at 1 µM,"primary AML specimens; Homo sapiens, 144 h, 1 μM, in 10 out of 56 primary AML specimens, read-out: growth inhibition",> 70%
same,% inhibition S656 at 1uM,"primary AML specimens; discovery screen, one primary AML specimen per row (Patient ID in c0)",0.00%
same,ATR mRNA,[1],0.3 and 0.2683 and 0.3666
same,BRCA2 mRNA,[1],0.127 and 0.1345 and 0.2247
same,percentage of cells in G1,OCI-AML5 cells; S656 1uM,50.8% and 63.1% and 58.6%
same,percentage of cells in G2/M,OCI-AML5 cells; S656 1uM,26.6% and 23.9% and 22.5%
same,percentage of cells in S,OCI-AML5 cells; S656 1uM,21.5% and 12.1% and 18.1%
same,percentage of cells in G1,OCI-AML5 cells; S656 3uM,69.1% and 60.5% and 65.7%
same,percentage of cells in G2/M,OCI-AML5 cells; S656 3uM,17.7% and 29.1% and 24.3%
same,percentage of cells in S,OCI-AML5 cells; S656 3uM,12% and 9.62% and 8.06%
same,IC50,"[2]; Homo sapiens, OCI-AML-5, 96 h, sgAAVS + DOX",923 nM
same,IC50,"[2]; Homo sapiens, OCI-AML-5, 96 h, sgAAVS - DOX",896 nM
same,IC50,"[2]; Homo sapiens, OCI-AML-5, 96 h, sgDDB1 #1 + DOX",2170 nM
same,IC50,"[2]; Homo sapiens, OCI-AML-5, 96 h, sgDDB1 #1 - DOX",1190 nM
same,IC50,"[2]; Homo sapiens, OCI-AML-5, 96 h, sgDDB1 #2 + DOX",2440 nM
same,IC50,"[2]; Homo sapiens, OCI-AML-5, 96 h, sgDDB1 #2 - DOX",936 nM
same,IC50,[2]; sgAAVS + DOX,1130 nM and 960 nM
same,IC50,[2]; sgAAVS - DOX,945 nM and 735 nM
same,IC50,[2]; sgDDB1 #1 + DOX,2090 nM and 1910 nM
same,IC50,[2]; sgDDB1 #1 - DOX,1020 nM and 964 nM
same,IC50,[2]; sgDDB1 #2 + DOX,2380 nM and 1630 nM
same,IC50,[2]; sgDDB1 #2 - DOX,1070 nM and 975 nM
same,log2FC CCNK,OCI-AML5 cells proteome,-7.264
same,log2FC GNL1,OCI-AML5 cells proteome,-6.619
same,log2FC PM34,OCI-AML5 cells proteome,-4.278
same,log2FC PMYT1,OCI-AML5 cells proteome,-4.723
same,log2FC RIOK2,OCI-AML5 cells proteome,-4.751
